Reference: US20250134903A1, “COMPOSITIONS AND METHODS FOR TREATING PAIN” (priority 2023, published 2025)
Entries after “also recorded” stand apart in the source; their conditions may differ.

Assays:
[1] = target: histamine H1-receptor (Homo sapiens, UniProt P35367); details: more potent; cited from earlier work
[2] = 5% lidocaine plaster applied to skin; cited from earlier work
[3] = target: mu-opioid receptors (Homo sapiens, UniProt P35372); details: cited from earlier work
[4] = system: classic TN; details: 100-400 mg/d; 8 patients with classic TN; cited from earlier work
[5] = system: patients suffering from trigeminal neuralgia (TN); assay: Non-randomized clinical observations of Trimeprazine in patients (n=7) with trigeminal neuralgia; format: in vivo, human; details: for overall efficacy on TN pain: seven TN patients, non-randomized
Excerpt: A middle-aged patient suffers from classic trigeminal (Type 1) neuralgia presenting with sharp, lancinating, severe pain in their left face precipitated by showering, eating, facial animation, touch of their facial skin and nose, and brushing their teeth. The episodes of pain are initiated by the stimuli above and immediately stop all other activity until they subside in several seconds. Their behavior is modified to avoid the stimuli above, even affecting how they speak and eats. […] Their daily activities are dominated by fear of inducing another attack.
The patient began treatment with Trimeprazine 5 mg morning and evening.
The disease had caused cutaneous anesthesia in the right forehead and cheek. […] Beginning at about 19 years after the bout of Lyme disease they noted sharp lightning-like pains in their right cheek. Brief and usually during cutaneous stimulation, like being in a shower. There were perhaps one or two of these occurrences per year. At 22 years after the initial Lyme disease, they experienced a severe attack of Trigeminal Neuralgia (TN) affecting their right cheek (Type 1). There were on average 8 bouts of severe stabbing pain per day precipitated by facial animation, touching, opening their mouth to eat, brushing their teeth, and even a gust of cold wind. They treated themself with doxycycline, fearing a reactivation of Lyme disease.
They were quite miserable, being unable to even brush their teeth without precipitating a severe bout of pain.
Patient is a person who suffers from TN which began 3 years ago after a dental procedure. The TN was manifest by sharp, lancinating pain in the left side of their jaw (Type. 1). These periods of pain were episodic, precipitated by stimuli like brushing their teeth, at least once per day, with periods of vulnerability lasting 3-4 weeks each occurring 3-4 times per year. Their parent had suffered with the same pattern of TN. When started on Trimeprazine they were also taking Pregabalin.
Patient is a young person who developed severe ophthalmic herpes zoster involving the right side of their face and their right eye. They had extensive ocular involvement requiring medications for a full year. Their corneal difficulties were accompanied by a severe lingering neuralgia in the affected ophthalmic distribution of the trigeminal nerve (Type 2), which plagued their every waking hour. They were on 12 medications including carbamazepine 200 mg BID and pregabalin 150 mg TID, ophthalmic medications, and oxycodone as needed for pain relief.
This patient suffered from shingles on their forehead which was followed by lingering neuralgia in the affected ophthalmic distribution of the trigeminal nerve.

[6] = cited from earlier work
[7] = system: TN; details: 10 patients with TN; cited from earlier work
[8] = system: TN; details: 23 patients; add-on therapy; cited from earlier work
[9] = system: PHN; details: in vivo; cited from earlier work
[10] = system: PHN symptoms; details: human, in vivo; cited from earlier work
[11] = system: post-herpetic neuralgia (PHN) pain; assay: Applicant's clinical observations of Trimeprazine tartrate in post-herpetic neuralgia; format: in vivo, human; details: not a randomized clinical trial
Excerpt: While the clinical observations are not from a randomized clinical trial and could be subject to placebo effects and other confounders, they offer a promising finding for this devastating facial pain condition.

[12] = Example 5, four months or so after

mu-opioid receptors, sequence (P35372 whole entry): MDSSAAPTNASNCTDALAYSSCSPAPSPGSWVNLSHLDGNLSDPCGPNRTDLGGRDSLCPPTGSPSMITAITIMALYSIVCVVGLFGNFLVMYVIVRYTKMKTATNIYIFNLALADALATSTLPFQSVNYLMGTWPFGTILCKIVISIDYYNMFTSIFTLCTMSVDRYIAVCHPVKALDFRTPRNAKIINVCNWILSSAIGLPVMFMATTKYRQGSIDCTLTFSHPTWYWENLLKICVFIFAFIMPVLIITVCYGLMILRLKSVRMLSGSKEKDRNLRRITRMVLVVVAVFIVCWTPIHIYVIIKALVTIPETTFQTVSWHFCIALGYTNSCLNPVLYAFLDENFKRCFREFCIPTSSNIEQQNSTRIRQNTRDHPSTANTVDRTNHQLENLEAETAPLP
histamine H1-receptor, sequence (P35367 whole entry, species assumed): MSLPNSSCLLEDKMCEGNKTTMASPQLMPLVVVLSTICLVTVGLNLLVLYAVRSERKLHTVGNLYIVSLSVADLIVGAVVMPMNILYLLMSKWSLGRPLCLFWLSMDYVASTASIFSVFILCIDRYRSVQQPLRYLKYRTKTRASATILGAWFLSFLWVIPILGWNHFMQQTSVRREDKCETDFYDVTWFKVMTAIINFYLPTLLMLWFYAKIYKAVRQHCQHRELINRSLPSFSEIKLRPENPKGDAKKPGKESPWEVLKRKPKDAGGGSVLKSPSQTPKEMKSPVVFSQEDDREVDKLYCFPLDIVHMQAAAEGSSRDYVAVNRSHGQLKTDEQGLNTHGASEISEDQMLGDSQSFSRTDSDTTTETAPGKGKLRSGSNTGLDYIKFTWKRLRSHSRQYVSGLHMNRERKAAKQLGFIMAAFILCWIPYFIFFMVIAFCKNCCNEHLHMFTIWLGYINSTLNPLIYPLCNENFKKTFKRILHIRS

For `Cc1ccc(/C(=C\CN2CCCC2)c2ccccn2)cc1` [E-triprolidine], the “potency relative to Z-triprolidine” value [1] is listed as 1000 fold.
For `CCN(CC)CC(=O)Nc1c(C)cccc1C` [Lidocaine], the “fraction of the drug reaching the systemic circulation” value [2] is listed as 3%.
In the case of `CC[C@@H](c1cccc(O)c1)[C@@H](C)CN(C)C` [Tapentadol], the “times less potent than morphine in binding mu-opioid receptors” value [3] is listed as 18 times.
For `CC1(C)O[C@@H]2[C@@H](CO[C@@]3(COS(N)(=O)=O)OC(C)(C)O[C@@H]23)O1` [Topiramate], the “patients in whom found effective” value [4] is listed as 75%.
In the case of `CC(CN(C)C)CN1c2ccccc2Sc2ccccc21` (stereo not shown) [Trimeprazine], the pain ([5]; Example 1, TN Type 1, 5 mg morning and evening, after four days of medication) is reported as “all pain was gone”, the “intensity and frequency of the attacks” value ([5]; Example 1, middle-aged male, TN Type 1, 5 mg morning and evening, second day of the course) is reported as “in decline” and the side-effects ([5]; Example 1, 5 mg) is reported as “no side-effects other than drowsiness”. The “later discomfort in face” value ([5]; Example 1, ½ to 1 pill of 5 mg once or twice a day) was “successfully alleviated”, the recurring sharp pains ([5]; Example 2, person, TN Type 1, recurrences at seven and eleven months after the TN attack, 5 mg twice a day) was “immediately stop all recurring pains” and the “recurrent attacks of TN” value ([5]; Example 2, in the 12 months since the last treatment) was “no recurrent attacks of TN”. The pain ([5]; Example 3, elderly male, TN Type 1 uncontrolled with carbamazepine and gabapentin, 5 mg twice a day, by ten days after starting treatment) was “essentially pain free”, the duration of relief ([5]; Example 3, 5 mg twice a day) was “enduring” and the tolerability ([5]; Example 3, 5 mg twice a day) was “except for some drowsiness, tolerated the medicine well”. For the same compound, the jaw pain ([5]; Example 4, person, TN Type 1, also taking Pregabalin, after a first course of 10 days, 5 mg BID) was “jaw pain was gone”, the “sensitive area on the side of head above ear” value ([5]; Example 4, second course 5 mg BID for several days) was “disappeared entirely” and the improvement of neuralgia ([5]; Example 5, young person, TN Type 2 after ophthalmic herpes zoster, by 5 days after starting the medication) was “some improvement”. The “average pain (patient-reported)” value [5, 12] was 2, the “max pain (patient-reported)” value [5, 12] was 5 and the “patient-reported relief of head pain” value ([5]; Example 6, TN Type 2 after shingles, 5 mg BID, by 6 days after starting) was “it does help my head”. The “Clinical Outcome” value ([5]; Patient 1, TN Type 1) was “Relief, no additional”, the Comment ([5]; Patient 1, TN Type 1) was “Pain gone day 3” and the “Clinical Outcome” value ([5]; Patient 2, TN Type 1) was “Relief, no additional”. For the same compound, the Comment ([5]; Patient 2, TN Type 1) was 3 subsequent attacks, the “Clinical Outcome” value ([5]; Patient 3, TN Type 1) was “Relief, no additional” and the Comment ([5]; Patient 3, TN Type 1) was ““So nice to be pain”. For the same compound, the “Clinical Outcome” value ([5]; Patient 4, TN Type 1) was “Relief, no additional”, the Comment ([5]; Patient 4, TN Type 1) was “Facial pain gone” and the Comment ([5]; Patient 5, TN Type 2) was “Better and continuing”. The “Clinical Outcome” value ([5]; Patient 6, TN Type 2) was “Better, can travel”, the “Clinical Outcome” value ([5]; Patient 7, TN Type 2) was “Better, no additional” and the Comment ([5]; Patient 7, TN Type 2) was ““No bother now””. The “overall efficacy on TN pain” value [5] was “demonstrated efficacy; also recorded: significant pain relief”, the “overall efficacy on TN pain” value ([5]; listed as trimeprazine) was “reduced or relieved” and the “patients with long-term pain relief, no recurrence of symptoms for over 12 months” value ([5]; subset of TN patients treated with Trimeprazine) was “two out of seven”. For the same compound, the LogP [6] was 4.71.
For `CC[C@@H](C(N)=O)N1CCCC1=O` [levetiracetam], the improvement [7] is listed as 50-90% and the “reduction in number of daily attacks” value [8] is listed as 62%.
In the case of `CC(C)C[C@H](CN)CC(=O)O` [pregabalin], the “analgesic property relative to gabapentin” value [9] is listed as 6 times.
For Botulinum Toxin A [BTX-A], the “cases in which effective in reducing pain” value [10] is listed as 31%, the “cases with significant outcomes” value [10] is listed as 46.6% and the side effects [10] is listed as “mild”.
With Trimeprazine tartrate the “overall efficacy on TN pain” value [5] was “effectiveness in alleviating pain” and the “effectiveness on PHN pain” value [11] was “effectiveness in alleviating pain”.
